Test results reported in patent publication US9611223B2, “3-aryl-5-substituted-isoquinolin-1-one compounds and their therapeutic use” (INSTITUTE OF CANCER RESEARCH: ROYAL CANCER HOSPITAL (THE), priority 2013, dated 2017).
Read-outs that look alike come from different tables or passages of the source.

Experiments:
TNKS1 = target: T1, TNKS1 (Homo sapiens, UniProt O95271, M1266I); assay: TNKS1/PARP Biochemical Assay
T1 construct: expresses the active PARP domain of TNKS1 as a polyhistidine tagged protein; made in house; host or cells: E. coli Rosetta2(DE3)
Experimental: TNKS1/PARP Biochemical Assay
Tankyrase activity was assayed using a 96-well format HT Universal Chemiluminescent PARP Assay Kit (Trevigen, Inc, cat. no. 4676-096-K) according to the manufacturer's instructions. In short, tankyrase/PARP activity is quantified by the incorporation of biotinylated nicotinamide adenine dinucleotide (biotin-NAD^+) onto the immobilised pseudo substrate, Histone. The extent of poly(Biotin-ADP)ribosylation (PARylation) in the presence of increasing dose of inhibitor is then quantified by binding of streptavidin conjugated horse radish peroxidase (strep-HRP) followed by chemiluminescent detection.
Prior to assay initiation, inhibitor stocks were prepared in aqueous DMSO (10% (v/v)) from 5 millimolar (mM) stock in 100% DMSO (Sigma Aldrich, cat. no. 265855) as 10× concentrations. For the primary assay (i.e., single dose at 1 micromolar (μM) final concentration) this corresponded to 10 μM in 10% DMSO. For IC50 determination, this corresponded to 100 μM, 30 μM, 10 μM, 3.0 μM, 1.0 μM, 0.30 μM, 0.10 μM and 0 μM in 10% DMSO for final concentrations of 10 μM, 3.0 μM, 1.0 μM, 0.30 μM, 0.10 μM, 0.030 μM, 0.010 μM, and 0 μM with 1% (v/v) final DMSO. The assay was initiated by the addition of 10× inhibitor (5 microliters (μL)) or 10% aqueous DMSO (5 μL) to triplicate wells. Twenty microliters of diluted TNKS1 protein (200 nanomolar (nM) final conc.) in PARP buffer (Trevigen, Inc, cat. no. 4671-096-02) was added to each histone coated well, which was previously hydrated with PARP buffer. Triplicate wells with 1% DMSO/buffer alone (no enzyme) were also added as a measure of assay ‘noise’. Positive control for PARP inhibition included the addition of 4-amino-1,8-naphthalimide (Sigma Aldrich, cat. no A0966) in corresponding doses.
The mixture was incubated for 10 minutes at room temperature and the PARylation reaction initiated by the addition of PARP cocktail (25 μL, Trevigen, Inc) containing biotin-NAD^+ (Trevigen, Inc, cat. no. 4670-500-01), activated DNA (Trevigen, Inc, cat. no. 4671-096-06) and PARP buffer. The reaction was incubated for 1.5 hours (for TNKS1) or 1 hour (for PARP1) at room temperature. The reaction mixture was then removed by aspiration and the wells washed (3×200 μL) with phosphate buffered saline containing Triton X-100 (0.1% (v/v), Sigma Aldrich cat. no. T8787). The wells were then washed (3×200 μL) with phosphate buffered saline and then incubated with strep-HRP (50 μL, Trevigen, Inc, cat. no. 4800-30-06) in strep-diluent (1:500 dilution, Trevigen Inc, cat. no. 4671-096-04) for 1 hour at room temperature. The Strep-HRP mixture was then aspirated and the wells washed (3×200 μL) with phosphate buffered saline containing Triton X-100 (0.1% (v/v)) followed by phosphate buffered saline (3×200 μL) and then incubated with PeroxyGlow™ reagent (100 μL, Trevigen, Inc, cat. nos. 4675-096-01, 4675-096-02, room temperature, mixed 1:1).
The amount of light emitted as a result of the peroxidase-chemiluminescent reagent reaction was in proportion to the extent of poly(Biotin-ADP)ribosylation and was immediately measured with a Victor^2 plate reader (Perkin Elmer, luminescence detection assay, luminescent units described as ‘Counts Per Second’ (CPS)). The data were normalised to the DMSO control after subtraction of ‘noise’ and was expressed as % PARP activity as a function of inhibitor dose. Inhibition was expressed as 100%−(% PARP activity). Dose response curves used to determine IC50 values were Log transformed and analysed by non-linear regression analysis (variable slope) using Prism (GraphPad Software, Inc) and were presented as IC50 with 95% confidence interval to determine relative potency.
Tankyrase1 (pNIC-Bsa4-TNKS1^PARP) expression construct was obtained from the Structural Genomics Consortium (SGC) and expresses the active PARP domain of TNKS1 as a polyhistidine tagged protein. […]

COLO320DM cells = assay: Tumour Cell Inhibition Assay (COLO320DM cells); type: cell-based; settings: Homo sapiens, COLO 320DM, 120 h, five day exposure, read-out: cell inhibitory SF50 (COLO320DM)
Experimental: (§1) Tumour Cell Inhibition in Colorectal Tumour Cells
(§2) In order to determine the efficacy of acute dosing of putative TNKS inhibitors, five day exposure cell viability assays were carried out. This included the sparse seeding of cells in a 96-well plate followed by continuous dosing of cells over a five day period.
(§3) Appropriate cell lines (HT55, COLO320DM and SW620) were seeded at 500 cells/well in a 96-well plate in MEM (HT55), RPMI (COLO320DM) or DMEM (SW620) supplemented with FBS. After overnight incubation, cells were treated with the appropriate putative TNKS inhibitor in 6 or 10 concentrations ranging from 0 μM to 10 μM at 0.2% final DMSO concentration in appropriate media supplemented with 10% or 0.5% FBS. Dosages were carried out in triplicate. Termination of the assay and measurement of cell viability was achieved by the use of Cell Titre Glo reagent and luminescence measurement on an appropriate plate reader.
(§4) Dose response curves used to determine SF50 values were Log transformed and analysed by non-linear regression analysis (variable slope) using Prism (GraphPad Software, Inc).

HT55 cells = assay: Tumour Cell Inhibition Assay (HT55 cells); type: cell-based; settings: Homo sapiens, HT55, 120 h, Tumour Cell Inhibition Assay, five day exposure
Experimental: as §1, §2, §3, §4

T1 sequence (O95271 1112-1317 M1266I): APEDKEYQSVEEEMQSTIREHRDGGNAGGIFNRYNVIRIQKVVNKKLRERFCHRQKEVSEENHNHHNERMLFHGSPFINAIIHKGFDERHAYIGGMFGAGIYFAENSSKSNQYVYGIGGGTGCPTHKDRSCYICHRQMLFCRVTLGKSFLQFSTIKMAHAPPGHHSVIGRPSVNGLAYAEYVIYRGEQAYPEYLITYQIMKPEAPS

Row | IC50 (TNKS1) [nM] | IC50 (COLO320DM cells) [nM] | IC50 (HT55 cells; read-out: cell inhibitory SF50 (HT55)) [nM] | IC50 (HT55 cells; replicate, read-out: cell inhibitory SF50 (HT55), replicate) [nM] | Compound
1 | < 50 | < 5000 | – | – | CN1CCN(Cc2ccc(-c3cc4c(C#N)cccc4c(=O)[nH]3)cc2)CC1 [IQ-002, 3-[4-(4-Methyl-piperazin-1-ylmethyl)-phenyl]-1-oxo-1,2-dihydro-isoquinoline-5-carbonitrile]
2 | < 100 | < 5000 | < 5000 | – | CN(C)C1CCN(Cc2ccc(-c3cc4c(C#N)cccc4c(=O)[nH]3)cc2)C1 (stereo not shown) [IQ-011]
3 | < 50 | < 5000 | – | 1800 | CN(C)C1CCN(Cc2ccc(-c3cc4c(C#N)cccc4c(=O)[nH]3)cc2)CC1 [IQ-012]
4 | < 100 | < 5000 | – | – | CN1CCN(Cc2ccc(-c3cc4c(C#N)cc(F)cc4c(=O)[nH]3)cc2)CC1 [IQ-014]
